Data from ChEMBL document CHEMBL1126146, “Synthesis and muscarinic activity of quinuclidinyl- and (1-azanorbornyl)pyrazine derivatives” (J Med Chem, 1992).

Legend:
[1] = target: T1, Muscarinic acetylcholine receptor (Rattus norvegicus) (UniProt P08482+P08483+P08485+P08911+P10980)
Description: In vitro binding affinity against cortical muscarinic acetylcholine receptor measured by displacement of [3H]OXO-M.

[2] = target: T1, Muscarinic acetylcholine receptor (Rattus norvegicus); remark: listed apart in the source
Description: In vitro binding affinity against cortical muscarinic acetylcholine receptor measured by displacement of [3H]NMS.

For `COc1cncc([C@@H]2CN3CCCC2C3)n1` (some centres not stated), the K app [1] was 0.0093 µM and the K app [2] was 0.19 µM.
In the case of `Cc1ncc([C@@H]2CN3CCC2C3)nc1C` (some centres not stated), the K app [1] is reported as 0.013 µM and the K app [2] is reported as 0.53 µM.
`Cc1cncc([C@@H]2CN3CCC2C3)n1` (some centres not stated) gave a K app [1] of 0.0015 µM and a K app [2] of 0.47 µM.
Work on `CN(C)c1cncc([C@H]2CN3CCC2C3)n1` (some centres not stated) yielded a K app [1] of 0.057 µM and a K app [2] of 0.86 µM.
Compound `COc1cncc([C@@H]2CN3CCC2C3)n1` (some centres not stated) has a K app [1] of 0.0098 µM and a K app [2] of 0.46 µM.
Work on `Cc1nc(C)c([C@H]2CN3CCC2C3)nc1C` (some centres not stated) yielded a K app [1] of 0.053 µM and a K app [2] of 0.35 µM.
`Nc1noc(C2CN3CCC2C3)n1` (stereo in doubt; 3b) was tested, and the K app [1] was 0.0051 µM.
`CCc1cncc(C2CN3CCC2C3)n1` (stereo in doubt; 27a) gave a K app [1] of 0.0095 µM and a K app [2] of 0.13 µM.
`Cc1ncc(C2CN3CCC2CC3)nc1C` (configuration not stated) was tested, and the K app [1] was 0.0095 µM and the K app [2] was 0.078 µM.
`c1cnc([C@@H]2CN3CCC2C3)cn1` (some centres not stated) showed a K app [1] of 0.0007 µM and a K app [2] of 1.6 µM.
`Cc1nccnc1[C@@H]1CN2CCC1C2` (some centres not stated) was tested, and the K app [1] was 0.0016 µM and the K app [2] was 5.2 µM.
For `CCCc1nccnc1C1CN2CCC1C2` (configuration not stated), the K app [1] was 0.015 µM and the K app [2] was 0.35 µM.
`Cc1cncc(C2CN3CCC2CC3)n1` (configuration not stated) gave a K app [1] of 0.0021 µM and a K app [2] of 0.066 µM.
With `Cc1ncc(C2CN3CCC2CC3)cn1` (configuration not stated) the K app [1] was 0.091 µM and the K app [2] was 1.5 µM.
With `c1cnc([C@H]2CN3CCC2C3)cn1` (some centres not stated) the K app [1] was less than 8.6e-05 µM and the K app [2] was 0.059 µM.
Compound `c1ncc(C2CN3CCC2CC3)cn1` (configuration not stated) has a K app [1] of 0.16 µM and a K app [2] of 2.8 µM.
With `Cc1cnc(C)c([C@@H]2CN3CCC2C3)n1` (some centres not stated) the K app [1] was 0.13 µM and the K app [2] was 3 µM.
With `Clc1ccc(C2CN3CCC2CC3)nn1` (configuration not stated) the K app [1] was 0.098 µM and the K app [2] was 3.5 µM.
With `Cc1cnc(C)c(C2CN3CCC2CC3)n1` (configuration not stated) the K app [1] was 0.026 µM and the K app [2] was 0.26 µM.
With `Cc1cnc(C)c([C@H]2CN3CCC2C3)n1` (some centres not stated) the K app [1] was 0.011 µM and the K app [2] was 0.19 µM.
`CC(C)Oc1cncc([C@H]2CN3CCC2C3)n1` (some centres not stated) showed a K app [1] of 0.031 µM and a K app [2] of 0.13 µM.
For `c1cnc([C@H]2CN3CCCC2C3)cn1` (some centres not stated), the K app [1] was 0.00084 µM and the K app [2] was 0.4 µM.
`Cc1cncc([C@H]2CN3CCC2C3)n1` (some centres not stated) was tested, and the K app [1] was 0.0014 µM and the K app [2] was 0.18 µM.
`Oc1cncc(C2CN3CCC2CC3)n1` (configuration not stated) showed a K app [1] of 0.28 µM and a K app [2] of 27 µM.
Work on `Clc1cncc(C2CN3CCC2CC3)n1` (configuration not stated) yielded a K app [1] of 0.00087 µM and a K app [2] of 0.051 µM.
`CCc1cncc(C2CN3CCC2C3)n1` (stereo in doubt; 27b) showed a K app [1] of 0.0021 µM and a K app [2] of 0.15 µM.
For `Cc1nccnc1[C@H]1CN2CCC1C2` (some centres not stated), the K app [1] was 0.00026 µM and the K app [2] was 0.21 µM.
Work on `Cc1cnc([C@H]2CN3CCC2C3)c(C)n1` (some centres not stated) yielded a K app [1] of 0.017 µM and a K app [2] of 0.75 µM.
`C=CCOc1cncc([C@@H]2CN3CCC2C3)n1` (some centres not stated) showed a K app [1] of 0.021 µM and a K app [2] of 0.12 µM.
Compound `Cc1nc(C)c([C@@H]2CN3CCC2C3)nc1C` (some centres not stated) has a K app [1] of 0.25 µM and a K app [2] of 1.6 µM.
`Cc1ncc([C@H]2CN3CCC2C3)nc1C` (some centres not stated) was tested, and the K app [1] was 0.015 µM and the K app [2] was 0.28 µM.
With `COc1cncc(C2CN3CCC2CC3)n1` (configuration not stated) the K app [1] was 0.0076 µM and the K app [2] was 0.14 µM.
`Cc1cnc([C@@H]2CN3CCC2C3)c(C)n1` (some centres not stated) gave a K app [1] of 0.66 µM and a K app [2] of 6.2 µM.
Work on `CCc1nccnc1[C@H]1CN2CCC1C2` (some centres not stated) yielded a K app [1] of 0.02 µM and a K app [2] of 0.69 µM.
Work on `Brc1cncc(C2CN3CCC2CC3)n1` (configuration not stated) yielded a K app [1] of 0.001 µM and a K app [2] of 0.033 µM.
`c1cnc([C@@H]2CN3CCCC2C3)cn1` (some centres not stated) gave a K app [1] of 0.014 µM and a K app [2] of 1.5 µM.
For `CCc1cncc(C2CN3CCC2CC3)n1` (configuration not stated), the K app [1] was 0.0017 µM and the K app [2] was 0.02 µM.
Compound `COc1cncc([C@H]2CN3CCC2C3)n1` (some centres not stated) has a K app [1] of 0.038 µM and a K app [2] of 0.96 µM.
`C=CCOc1cncc([C@H]2CN3CCC2C3)n1` (some centres not stated) showed a K app [1] of 0.03 µM and a K app [2] of 0.23 µM.
`CC(C)c1nccnc1C1CN2CCC1C2` (configuration not stated) showed a K app [1] of 0.022 µM and a K app [2] of 0.48 µM.
With `COc1cncc([C@H]2CN3CCCC2C3)n1` (some centres not stated) the K app [1] was 0.087 µM and the K app [2] was 1.2 µM.
With `C#CCOc1cncc(C2CN3CCC2C3)n1` (configuration not stated) the K app [1] was 0.0088 µM and the K app [2] was 0.15 µM.
`CCc1nccnc1[C@@H]1CN2CCC1C2` (some centres not stated) gave a K app [1] of 0.14 µM and a K app [2] of 2.2 µM.
`CCOc1cncc(C2CN3CCC2CC3)n1` (configuration not stated) showed a K app [1] of 0.0021 µM and a K app [2] of 0.019 µM.
`Cc1nccnc1C1CN2CCC1CC2` (configuration not stated) showed a K app [1] of 0.01 µM and a K app [2] of 1.51 µM.
`c1cnc(C2CN3CCC2CC3)cn1` (configuration not stated) gave a K app [1] of 0.00068 µM and a K app [2] of 0.27 µM.
Compound `CC(C)Oc1cncc([C@@H]2CN3CCC2C3)n1` (some centres not stated) has a K app [1] of 0.012 µM and a K app [2] of 0.049 µM.
`CN(C)c1cncc([C@@H]2CN3CCC2C3)n1` (some centres not stated) gave a K app [1] of 0.07 µM and a K app [2] of 0.03 µM.
In the case of `Clc1cncc(C2CN3CCC2C3)n1` (configuration not stated), the K app [1] is reported as 0.00056 µM and the K app [2] is reported as 0.21 µM.
